Literature values as cited in publication PMC7457146 (Epigenomics, 2012).
Where “and” joins values, the source holds several entries; their conditions need not be identical. Equal entries are not always repeated. Entries after “also recorded” stand apart in the source; their conditions may differ. Where two headings read alike, the source gives them in different places. One block for each compound: values may come before it.

What was measured:
LNCaP cells = settings: read-out: IC50 to induce growth delay
CYP3A4 = settings: CYP450 family CYP3A4 isoform
acute myeloid leukemia [1] = settings: ten AML patients, Phase I
refractory lung cancer = settings: 17.8 mg/m^2 days 1 and 7 of 21-day cycles, 19 patients
[2] = test system: chronic lymphocytic leukemia
[3] = test system: cutaneous T-cell lymphoma
[4] = test system: HBL2, Granta519 and Jeko1 MCL cell lines; settings: belinostat 100–1000 nM or romidepsin 1–40 nM
multiple myeloma [5] = test system: multiple myeloma
HDAC2 = settings: ref Data supplied by Gloucester Pharmaceuticles Inc. and performed by Epigentek 2007
HDAC5 = settings: ref Data supplied by Gloucester Pharmaceuticles Inc. and performed by Epigentek 2007
HDAC6 = settings: ref Data supplied by Gloucester Pharmaceuticles Inc. and performed by Epigentek 2007
[6] = test system: malignant rhabdoid tumors; settings: day 12; 1.2, 2.5 and 5 mg/kg on days 0, 4 and 8
HDAC8 = settings: ref Data supplied by Gloucester Pharmaceuticles Inc. and performed by Epigentek 2007
HDAC4 = settings: ref Data supplied by Gloucester Pharmaceuticles Inc. and performed by Epigentek 2007
HDAC7 = settings: ref Data supplied by Gloucester Pharmaceuticles Inc. and performed by Epigentek 2007
[7] = test system: Epstein-Barr virus-transformed lymphoblastoid cell tumors
HDAC10 = settings: ref Data supplied by Gloucester Pharmaceuticles Inc. and performed by Epigentek 2007
[8] = not given; remark: listed apart in the source
[9] = test system: cutaneous T-cell lymphoma; settings: CTCL
HDAC1 = settings: ref Data supplied by Gloucester Pharmaceuticles Inc. and performed by Epigentek 2007
acute myeloid leukemia [10] = settings: AML, 13 mg/m^2 iv. over 4 h days 1, 8, 15 of 28-day cycle
[11] = nonhuman primates
VEGF mRNA = settings: PC-3 prostate cancer cells, after 12 h
[12] = test system: human lymphoma U-937 tumors; settings: SCID mice with U-937 tumors; control median 20 days
[13] = test system: Prostate cancer: PC-3 and DU-145; settings: read-out: Mean IC50; Prostate cancer cell lines, 72-h incubation; ref Data supplied by Gloucester Pharmaceuticals
HDAC3 = settings: ref Data supplied by Gloucester Pharmaceuticles Inc. and performed by Epigentek 2007
HDAC9 = settings: ref Data supplied by Gloucester Pharmaceuticles Inc. and performed by Epigentek 2007
[14] = not given; remark: listed apart in the source
[15] = 42 patients, Phase II trial
[16] = test system: pancreatic and other advanced solid tumors; settings: in combination with gemcitabine
HDAC11 = settings: ref Data supplied by Gloucester Pharmaceuticles Inc. and performed by Epigentek 2007
multiple myeloma [17] = settings: with bortezomib and dexamethasone
[18] = test system: cutaneous T-cell lymphoma; remark: listed apart in the source

SMILES: N[C@@H](Cc1ccc(N(CCCl)CCCl)cc1)C(=O)O [melphalan]
apoptosis (U266 myeloma cells; melphalan 10 μmol/l (control 28%)): 44%

SMILES: C/C=C1\NC(=O)[C@H]2CSSCC/C=C/[C@H](CC(=O)N[C@H](C(C)C)C(=O)N2)OC(=O)[C@H](C(C)C)NC1=O [Romidepsin]
IC50 (LNCaP cells): ~5.79 nM
primary metabolising enzyme (CYP3A4): primarily metabolized by the CYP450 family CYP3A4 isoform
CR or PR (acute myeloid leukemia [1]): none achieved CR or PR
objective responses (refractory lung cancer): no objective responses
patients with disease stabilization (refractory lung cancer): nine
Responses ([2]; Phase I, CLL, 10 patients): no formal CR or PR; also recorded: No PR/CR (see text)
average reduction in leukocyte counts ([2]; seven CLL patients with high peripheral white cell counts, range: 45–76%): 58%
interaction with bortezomib (3–4 nM) [4]: synergism in all cell lines
clinical responses (multiple myeloma [5]; single agent 13 mg/m^2, 13 MM patients): no clinical responses were observed
IC50 (HDAC5): 567 nM
mean tumor volume [6]: significant reduction
IC50 (HDAC4): 466 nM
aqueous solubility [8]: limited aqueous solubility
patients with antileukemic activity (acute myeloid leukemia [10]): five out of seven
IC50 [13]: 2.98 nM
IC50 (HDAC11): 169 nM
increase in MDR1 (MDR1; malignant PBMCs of patients in NIH clinical trials): eightfold
increase in MDR1 (MDR1; normal PBMCs of patients in NIH clinical trials): sixfold
minimal responses (multiple myeloma [17]; 25 pretreated myeloma patients): three
very good PRs (multiple myeloma [17]; 25 pretreated myeloma patients): seven
Responses: PR ([18]; Phase II, CTCL, 96 patients): 24

SMILES: C/C=C1\NC(=O)[C@@H](CS)NC(=O)[C@@H](C(C)C)NC(=O)C[C@@H](/C=C/CCS)OC(=O)[C@H](C(C)C)NC1=O [Activated romidepsin]
IC50 (HDAC5): 79.6 nM
IC50 (HDAC6): 32.6 nM
IC50 (HDAC8): 34.3 nM
IC50 (HDAC4): 95.7 nM
IC50 (HDAC7): 279 nM
IC50 (HDAC10): 368 nM
IC50 (HDAC3): 103 nM
IC50 (HDAC9): 2730 nM
IC50 (HDAC11): 64.1 nM

SMILES: O=C(/C=C/c1cccc(S(=O)(=O)Nc2ccccc2)c1)NO [belinostat]
interaction with bortezomib (3–4 nM) [4]: synergism in all cell lines
